In patent US5922767A, “Substituted benzylurea derivatives and medicine containing the same” (SS Pharmaceutical Co., Ltd., priority 1996, dated 1999):

Columns and labels:
[1] = molecular target: T1, ACAT of rat liver microsomes (Rattus norvegicus, UniProt Q7TQM4); assay: Test for inhibitory activity against ACAT using rat liver microsomes; assay type: biochemical; settings: 5 min; 100 nM of each compound; Mean ± S.D.; n = 3; vs DMSO control; read-out: Inhibition rate against ACAT activity in rat liver microsome
T1 construct: rat liver microsome fraction prepared in accordance with a method known per se; from tissue; host or cells: rat liver microsomes
T1 sequence (Q7TQM4 1-524): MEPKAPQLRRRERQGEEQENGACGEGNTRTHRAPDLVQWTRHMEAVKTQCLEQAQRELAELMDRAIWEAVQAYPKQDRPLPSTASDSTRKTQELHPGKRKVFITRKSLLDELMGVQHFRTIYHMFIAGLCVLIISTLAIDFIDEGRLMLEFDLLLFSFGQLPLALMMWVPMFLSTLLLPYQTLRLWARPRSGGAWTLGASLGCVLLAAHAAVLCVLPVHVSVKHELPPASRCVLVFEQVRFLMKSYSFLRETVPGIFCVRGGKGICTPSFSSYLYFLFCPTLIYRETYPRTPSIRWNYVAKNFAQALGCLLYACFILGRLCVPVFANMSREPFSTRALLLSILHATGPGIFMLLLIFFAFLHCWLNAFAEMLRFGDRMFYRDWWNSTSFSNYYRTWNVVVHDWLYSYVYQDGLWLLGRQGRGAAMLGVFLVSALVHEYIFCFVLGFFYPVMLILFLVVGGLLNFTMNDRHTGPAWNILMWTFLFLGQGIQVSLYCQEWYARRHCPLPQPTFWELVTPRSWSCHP
Description: More specifically, [^14 C]oleoyl-CoA and delipidized BSA were added to a rat liver microsome fraction prepared in accordance with a method known per se in the art to conduct a reaction at 37° C. for 5 minutes. After the reaction, the lipid in the reaction mixture was extracted with hexane, and the extract was dried to solid under reduced pressure.

ACAT in J774 cells = molecular target: T2, ACAT in J774 cells (Mus musculus, UniProt Q61263); assay: Test for inhibitory activity against ACAT using J774 cells; assay type: cell-based; settings: 100 nM of each compound, Mean ± S.D., n = 3, vs DMSO control, read-out: Inhibition rate against ACAT activity in J774 cells
T2 construct: endogenous in cells; host or cells: J774 cells (mouse macrophage-like)
T2 sequence (Q61263 1-540): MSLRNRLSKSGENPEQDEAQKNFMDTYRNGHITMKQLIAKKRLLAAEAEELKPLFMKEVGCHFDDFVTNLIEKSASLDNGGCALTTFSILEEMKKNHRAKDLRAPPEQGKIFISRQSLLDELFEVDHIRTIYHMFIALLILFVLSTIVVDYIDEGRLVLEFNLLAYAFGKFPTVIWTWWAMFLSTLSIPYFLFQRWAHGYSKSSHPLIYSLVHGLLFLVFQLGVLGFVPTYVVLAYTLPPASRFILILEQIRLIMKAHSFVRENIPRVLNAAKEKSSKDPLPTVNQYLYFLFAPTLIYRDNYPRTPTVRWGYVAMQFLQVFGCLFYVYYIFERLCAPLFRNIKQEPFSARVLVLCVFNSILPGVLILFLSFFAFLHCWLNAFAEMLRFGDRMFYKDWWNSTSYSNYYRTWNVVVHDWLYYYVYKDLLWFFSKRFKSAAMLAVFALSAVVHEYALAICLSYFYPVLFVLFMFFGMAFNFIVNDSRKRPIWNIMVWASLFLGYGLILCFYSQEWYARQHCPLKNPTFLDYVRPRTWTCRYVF
Description: i) Test for inhibitory activity against ACAT using J774 cells:
The ACAT activity of J774 cells was measured as the radioactivity of cholesteryl oleate produced from [^14 C]oleic acid and cholesterol which were added to a culture solution.
The extract was dried to solid under reduced pressure. After the resultant residue was then developed (developing solvent: diethyl ether/hexane/acetic acid=80/20/1) by TLC (thin-layer chromatography), the amount of cholesteryl oleate formed was determined by an imaging plate.

inhibition at 0.1 µM [1]: 0% | inhibition at 0.1 µM (ACAT in J774 cells): 86.3 ± 1.58%
SMILES: CC(C)c1cccc(C(C)C)c1NC(=O)NCc1cccc(OCc2ccc([N+](=O)[O-])cc2)c1 [Compound 1, 1-(2,6-diisopropylphenyl)-3-[3-(4-nitrobenzyloxy)benzyl]urea]
